Tests used:
TEC = molecular target: T1, TEC (Homo sapiens, UniProt P42680); experiment: Kinase activity assay, TEC
T1 sequence (P42680 1-631): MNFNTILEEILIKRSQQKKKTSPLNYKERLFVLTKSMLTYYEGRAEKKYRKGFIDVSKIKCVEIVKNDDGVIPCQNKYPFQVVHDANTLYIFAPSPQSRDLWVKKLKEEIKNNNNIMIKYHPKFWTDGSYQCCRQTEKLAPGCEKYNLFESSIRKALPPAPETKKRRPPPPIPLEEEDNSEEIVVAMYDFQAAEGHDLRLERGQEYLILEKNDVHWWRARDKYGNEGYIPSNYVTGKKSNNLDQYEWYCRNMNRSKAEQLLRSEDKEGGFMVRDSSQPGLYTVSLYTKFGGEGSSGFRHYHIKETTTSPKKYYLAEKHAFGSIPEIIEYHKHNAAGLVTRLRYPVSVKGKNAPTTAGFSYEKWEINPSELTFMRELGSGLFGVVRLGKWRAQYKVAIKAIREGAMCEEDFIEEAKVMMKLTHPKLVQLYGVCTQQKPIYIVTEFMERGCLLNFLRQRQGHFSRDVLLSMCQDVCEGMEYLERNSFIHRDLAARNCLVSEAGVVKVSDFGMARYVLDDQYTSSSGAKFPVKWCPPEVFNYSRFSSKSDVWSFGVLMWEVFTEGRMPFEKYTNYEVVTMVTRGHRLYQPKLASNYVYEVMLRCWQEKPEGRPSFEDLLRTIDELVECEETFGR

PI3Kα = PI3Kα (Homo sapiens, UniProt P42336); experiment: Kinase activity assay, PI3Kα
Src = Src (Homo sapiens, UniProt P12931); experiment: Kinase activity assay, Src
B-Raf V600E = B-Raf V600E (Homo sapiens, UniProt P15056, V600E); experiment: Kinase activity assay, B-Raf V600E; type: biochemical; conditions: read-out: activity toward kinase B-Raf V600E, IC50
C-Raf = C-Raf (Homo sapiens, UniProt P04049); experiment: Kinase activity assay, C-Raf
B-Raf = B-Raf (Homo sapiens, UniProt P15056); experiment: Kinase activity assay, B-Raf; type: biochemical; conditions: read-out: activity toward kinase B-Raf, IC50
Btk = Btk (Homo sapiens, UniProt Q06187); experiment: Kinase activity assay, Btk
Kdr = Kdr (Homo sapiens, UniProt P35968); experiment: Kinase activity assay, Kdr
Kit = Kit (Homo sapiens, UniProt P10721); experiment: Kinase activity assay, Kit
Fms = Fms (Homo sapiens, UniProt P07333); experiment: Kinase activity assay, Fms
MAP4K4 = MAP4K4 (Homo sapiens, UniProt O95819); experiment: Kinase activity assay, MAP4K4

Sequence of B-Raf (P15056 whole entry): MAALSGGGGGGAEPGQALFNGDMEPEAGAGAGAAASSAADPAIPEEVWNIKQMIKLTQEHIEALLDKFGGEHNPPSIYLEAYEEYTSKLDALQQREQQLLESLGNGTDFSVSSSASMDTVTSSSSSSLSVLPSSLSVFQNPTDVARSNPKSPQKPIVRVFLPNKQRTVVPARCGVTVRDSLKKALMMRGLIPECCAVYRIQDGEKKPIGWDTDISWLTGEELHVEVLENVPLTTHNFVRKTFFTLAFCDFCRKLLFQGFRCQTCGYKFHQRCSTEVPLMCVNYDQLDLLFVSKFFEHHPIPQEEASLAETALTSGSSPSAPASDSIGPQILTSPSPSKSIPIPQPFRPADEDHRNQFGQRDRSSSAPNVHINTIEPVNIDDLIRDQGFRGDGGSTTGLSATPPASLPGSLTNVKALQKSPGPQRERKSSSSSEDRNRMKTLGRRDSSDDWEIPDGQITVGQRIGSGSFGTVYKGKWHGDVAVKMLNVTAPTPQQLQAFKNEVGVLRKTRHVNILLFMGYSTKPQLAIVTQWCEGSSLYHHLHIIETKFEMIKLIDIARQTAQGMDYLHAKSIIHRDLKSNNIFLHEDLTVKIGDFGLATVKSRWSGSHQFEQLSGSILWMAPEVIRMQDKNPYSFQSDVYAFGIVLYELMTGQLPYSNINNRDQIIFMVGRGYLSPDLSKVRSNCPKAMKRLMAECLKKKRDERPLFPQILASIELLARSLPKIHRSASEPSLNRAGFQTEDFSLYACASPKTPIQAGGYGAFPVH
Sequence of C-Raf (P04049 whole entry): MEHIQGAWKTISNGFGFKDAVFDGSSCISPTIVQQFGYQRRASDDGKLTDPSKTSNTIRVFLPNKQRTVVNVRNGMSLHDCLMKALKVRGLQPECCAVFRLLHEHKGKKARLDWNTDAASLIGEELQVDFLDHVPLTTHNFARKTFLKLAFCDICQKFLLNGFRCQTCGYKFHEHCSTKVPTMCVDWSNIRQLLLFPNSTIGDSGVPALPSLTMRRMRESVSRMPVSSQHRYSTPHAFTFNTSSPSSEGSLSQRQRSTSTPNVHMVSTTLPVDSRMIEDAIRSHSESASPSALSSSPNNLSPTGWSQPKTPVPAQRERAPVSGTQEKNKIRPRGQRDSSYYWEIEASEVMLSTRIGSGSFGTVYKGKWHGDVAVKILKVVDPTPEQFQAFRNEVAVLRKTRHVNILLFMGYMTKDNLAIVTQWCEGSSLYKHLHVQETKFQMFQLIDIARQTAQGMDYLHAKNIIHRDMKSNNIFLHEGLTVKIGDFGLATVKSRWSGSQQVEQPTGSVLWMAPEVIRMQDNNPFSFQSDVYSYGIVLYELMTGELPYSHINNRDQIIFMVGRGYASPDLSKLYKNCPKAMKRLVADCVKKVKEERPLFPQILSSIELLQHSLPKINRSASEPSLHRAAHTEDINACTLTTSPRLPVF
Sequence of B-Raf V600E (P15056 whole entry V600E): as the sequence (P15056 whole entry) above, with V600E counted along it
Sequence of Src (P12931 whole entry): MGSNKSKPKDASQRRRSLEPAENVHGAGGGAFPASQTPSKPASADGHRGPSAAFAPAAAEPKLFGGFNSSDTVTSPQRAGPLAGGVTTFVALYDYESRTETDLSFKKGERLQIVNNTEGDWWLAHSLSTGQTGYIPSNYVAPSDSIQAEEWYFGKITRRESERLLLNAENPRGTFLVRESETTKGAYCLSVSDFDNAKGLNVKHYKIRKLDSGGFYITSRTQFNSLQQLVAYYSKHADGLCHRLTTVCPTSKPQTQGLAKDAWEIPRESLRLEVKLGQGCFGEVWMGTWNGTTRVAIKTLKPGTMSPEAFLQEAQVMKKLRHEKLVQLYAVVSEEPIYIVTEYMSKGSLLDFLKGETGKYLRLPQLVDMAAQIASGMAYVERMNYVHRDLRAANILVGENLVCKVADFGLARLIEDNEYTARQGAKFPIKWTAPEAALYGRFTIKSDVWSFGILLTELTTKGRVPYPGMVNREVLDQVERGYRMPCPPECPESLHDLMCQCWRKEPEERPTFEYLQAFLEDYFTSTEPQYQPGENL
Sequence of Kdr (P35968 20-1356): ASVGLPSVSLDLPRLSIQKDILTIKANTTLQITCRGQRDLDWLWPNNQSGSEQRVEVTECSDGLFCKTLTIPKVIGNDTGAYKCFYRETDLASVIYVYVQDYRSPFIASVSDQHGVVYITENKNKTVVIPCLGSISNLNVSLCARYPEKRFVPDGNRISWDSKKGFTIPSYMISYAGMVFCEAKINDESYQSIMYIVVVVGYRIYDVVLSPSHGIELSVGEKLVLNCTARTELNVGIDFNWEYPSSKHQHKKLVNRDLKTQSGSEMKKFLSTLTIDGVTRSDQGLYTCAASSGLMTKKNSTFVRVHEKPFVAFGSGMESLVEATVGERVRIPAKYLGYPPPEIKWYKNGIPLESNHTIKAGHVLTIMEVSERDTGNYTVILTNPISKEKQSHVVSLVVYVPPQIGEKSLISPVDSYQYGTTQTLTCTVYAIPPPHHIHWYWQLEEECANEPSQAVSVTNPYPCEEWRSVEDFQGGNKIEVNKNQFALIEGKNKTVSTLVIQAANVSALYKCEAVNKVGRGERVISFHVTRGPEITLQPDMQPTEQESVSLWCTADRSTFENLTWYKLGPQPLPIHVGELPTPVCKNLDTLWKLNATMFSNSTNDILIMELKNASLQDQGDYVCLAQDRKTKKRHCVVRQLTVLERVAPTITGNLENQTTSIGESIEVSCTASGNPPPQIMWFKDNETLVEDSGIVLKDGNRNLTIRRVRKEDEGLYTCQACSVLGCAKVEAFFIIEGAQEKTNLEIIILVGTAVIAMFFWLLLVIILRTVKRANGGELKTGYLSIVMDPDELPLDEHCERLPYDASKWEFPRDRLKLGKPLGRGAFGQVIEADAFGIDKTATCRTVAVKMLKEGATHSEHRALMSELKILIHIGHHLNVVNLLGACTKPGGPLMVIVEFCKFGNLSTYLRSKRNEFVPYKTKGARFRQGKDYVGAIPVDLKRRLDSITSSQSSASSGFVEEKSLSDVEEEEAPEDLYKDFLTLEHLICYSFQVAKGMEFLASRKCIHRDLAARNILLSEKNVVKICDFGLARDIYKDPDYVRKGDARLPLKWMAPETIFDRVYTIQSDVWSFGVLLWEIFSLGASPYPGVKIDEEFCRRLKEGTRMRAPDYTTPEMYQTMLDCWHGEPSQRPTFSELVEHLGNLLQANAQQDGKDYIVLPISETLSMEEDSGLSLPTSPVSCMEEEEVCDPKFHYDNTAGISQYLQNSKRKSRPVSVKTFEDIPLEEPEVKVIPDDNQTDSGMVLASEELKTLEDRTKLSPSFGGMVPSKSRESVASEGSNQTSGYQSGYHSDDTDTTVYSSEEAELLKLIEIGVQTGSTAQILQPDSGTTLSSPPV
Sequence of Btk (Q06187 whole entry): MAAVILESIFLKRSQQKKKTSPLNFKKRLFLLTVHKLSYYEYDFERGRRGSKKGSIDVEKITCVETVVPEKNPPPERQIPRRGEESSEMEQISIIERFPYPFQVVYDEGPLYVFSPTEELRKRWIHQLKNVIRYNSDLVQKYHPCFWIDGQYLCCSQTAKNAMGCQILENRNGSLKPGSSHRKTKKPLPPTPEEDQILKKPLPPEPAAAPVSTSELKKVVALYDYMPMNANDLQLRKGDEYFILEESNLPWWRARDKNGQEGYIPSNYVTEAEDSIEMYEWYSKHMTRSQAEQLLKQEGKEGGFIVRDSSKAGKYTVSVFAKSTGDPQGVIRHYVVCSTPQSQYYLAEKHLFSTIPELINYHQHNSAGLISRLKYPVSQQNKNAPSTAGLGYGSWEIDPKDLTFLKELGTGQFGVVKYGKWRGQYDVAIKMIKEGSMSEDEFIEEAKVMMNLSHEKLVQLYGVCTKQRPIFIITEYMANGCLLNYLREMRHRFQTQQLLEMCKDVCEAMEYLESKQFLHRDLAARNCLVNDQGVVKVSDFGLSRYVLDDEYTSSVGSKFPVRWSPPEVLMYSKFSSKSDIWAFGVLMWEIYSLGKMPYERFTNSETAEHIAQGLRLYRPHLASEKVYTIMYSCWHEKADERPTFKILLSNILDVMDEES
Sequence of Kit (P10721 26-976): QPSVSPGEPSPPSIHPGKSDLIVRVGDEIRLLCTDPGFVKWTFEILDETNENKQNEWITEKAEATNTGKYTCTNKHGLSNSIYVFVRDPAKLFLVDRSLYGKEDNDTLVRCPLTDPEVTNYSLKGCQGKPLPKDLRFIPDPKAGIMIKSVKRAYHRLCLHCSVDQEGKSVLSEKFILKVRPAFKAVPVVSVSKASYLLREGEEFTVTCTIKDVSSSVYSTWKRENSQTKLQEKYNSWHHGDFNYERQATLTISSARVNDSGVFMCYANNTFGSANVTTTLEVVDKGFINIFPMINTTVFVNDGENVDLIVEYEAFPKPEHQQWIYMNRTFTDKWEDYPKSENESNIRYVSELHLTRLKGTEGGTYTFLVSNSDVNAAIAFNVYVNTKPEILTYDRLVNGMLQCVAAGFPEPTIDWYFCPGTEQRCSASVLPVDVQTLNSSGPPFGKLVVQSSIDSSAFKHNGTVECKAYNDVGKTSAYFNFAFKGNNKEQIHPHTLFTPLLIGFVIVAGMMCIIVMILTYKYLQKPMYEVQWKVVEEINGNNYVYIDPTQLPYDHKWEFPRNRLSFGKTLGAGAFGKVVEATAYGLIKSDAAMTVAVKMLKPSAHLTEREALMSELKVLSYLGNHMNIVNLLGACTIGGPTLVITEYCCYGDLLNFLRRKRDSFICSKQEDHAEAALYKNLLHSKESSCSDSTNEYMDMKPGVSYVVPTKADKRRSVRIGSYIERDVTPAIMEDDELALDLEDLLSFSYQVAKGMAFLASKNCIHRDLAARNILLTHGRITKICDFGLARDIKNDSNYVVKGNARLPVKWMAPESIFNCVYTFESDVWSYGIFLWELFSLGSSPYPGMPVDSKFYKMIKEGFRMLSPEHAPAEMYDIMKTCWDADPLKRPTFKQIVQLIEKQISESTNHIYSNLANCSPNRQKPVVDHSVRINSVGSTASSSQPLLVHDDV

IC50 (TEC) [µM] | IC50 (PI3Kα) [µM] | IC50 (Src) [µM] | IC50 (B-Raf V600E) [µM] | IC50 (C-Raf) [µM] | IC50 (B-Raf) [µM] | IC50 (Btk) [µM] | IC50 (Kdr) [µM] | IC50 (Kit) [µM] | IC50 (Fms) [µM] | IC50 (MAP4K4) [µM] | SMILES
≤ 10 | ≤ 10 | ≤ 10 | ≤ 10 | ≤ 10 | ≤ 10 | ≤ 10 | – | – | – | – | COc1ncc(-c2cnc3[nH]cc(C(=O)c4c(F)ccc(NS(=O)(=O)c5cccc(F)c5)c4F)c3c2)cn1 [P-2045, N-{2,4-Difluoro-3-[5-(2-methoxy-pyrimidin-5-yl)-1H-pyrrolo[2,3-b]pyridine-3-carbonyl]-phenyl}-3-fluoro-benzenesulfonamide]
≤ 10 | ≤ 10 | ≤ 10 | ≤ 10 | ≤ 10 | ≤ 10 | – | ≤ 10 | ≤ 10 | – | – | COc1ncc(-c2cnc3[nH]cc(C(=O)c4c(F)ccc(NS(=O)(=O)CCC(F)(F)F)c4F)c3c2)cn1 [P-2333]
– | ≤ 10 | ≤ 10 | ≤ 10 | ≤ 10 | ≤ 10 | ≤ 10 | ≤ 10 | – | – | – | CCS(=O)(=O)Nc1ccc(F)c(C(=O)c2c[nH]c3ncc(-c4cnc(OC)nc4)cc23)c1F [P-2286, Ethanesulfonic acid {2,4-difluoro-3-[5-(2-methoxy-pyrimidin-5-yl)-1H-pyrrolo[2,3-b]pyridine-3-carbonyl]-phenyl}-amide]
≤ 10 | ≤ 10 | ≤ 10 | ≤ 10 | ≤ 10 | ≤ 10 | ≤ 10 | ≤ 10 | ≤ 10 | – | – | COc1ncc(-c2cnc3[nH]cc(C(=O)c4c(F)ccc(NS(=O)(=O)c5ccccc5F)c4F)c3c2)cn1 [P-2041, N-{2,4-Difluoro-3-[5-(2-methoxy-pyrimidin-5-yl)-1H-pyrrolo[2,3-b]pyridine-3-carbonyl]-phenyl}-2-fluoro-benzenesulfonamide]
≤ 10 | ≤ 10 | ≤ 10 | ≤ 10 | ≤ 10 | – | ≤ 10 | ≤ 10 | ≤ 10 | – | – | CCN(CC)S(=O)(=O)Nc1ccc(F)c(C(=O)c2c[nH]c3ncc(-c4cnc(OC)nc4)cc23)c1F [P-2401, N,N-diethylamino-sulfonic acid {2,4-difluoro-3-[5-(2-methoxy-pyrimidin-5-yl)-1H-pyrrolo[2,3-b]pyridine-3-carbonyl]-phenyl}-amide]
≤ 10 | ≤ 10 | ≤ 10 | ≤ 10 | ≤ 10 | ≤ 10 | ≤ 10 | ≤ 10 | ≤ 10 | ≤ 10 | – | COc1ncc(-c2cnc3[nH]cc(C(=O)c4c(F)ccc(NS(=O)(=O)c5c(F)cccc5F)c4F)c3c2)cn1 [P-2043, N-{2,4-Difluoro-3-[5-(2-methoxy-pyrimidin-5-yl)-1H-pyrrolo[2,3-b]pyridine-3-carbonyl]-phenyl}-2,6-difluoro-benzenesulfonamide]
– | ≤ 10 | ≤ 10 | ≤ 10 | ≤ 10 | ≤ 10 | ≤ 10 | ≤ 10 | ≤ 10 | – | ≤ 10 | NC(=O)c1cccc(-c2cnc3[nH]cc(C(=O)c4cccc(NS(=O)(=O)c5cccnc5)c4)c3c2)c1 [P-2147, 3-{3-[3-(Pyridine-3-sulfonylamino)-benzoyl]-1H-pyrrolo[2,3-b]pyridin-5-yl}-benzamide]
– | ≤ 10 | – | ≤ 10 | ≤ 10 | ≤ 10 | ≤ 10 | ≤ 10 | – | – | – | COc1ncc(-c2cnc3[nH]cc(C(=O)c4c(F)ccc(NS(C)(=O)=O)c4F)c3c2)cn1 [P-2295, N-{2,4-Difluoro-3-[5-(2-methoxy-pyrimidin-5-yl)-1H-pyrrolo[2,3-b]pyridine-3-carbonyl]-phenyl}-methanesulfonamide]
≤ 10 | ≤ 10 | ≤ 10 | ≤ 10 | ≤ 10 | ≤ 10 | – | ≤ 10 | – | – | – | COc1ncc(-c2cnc3[nH]cc(C(=O)c4c(F)ccc(NS(=O)(=O)C5CCC5)c4F)c3c2)cn1 [P-2373, Cyclobutanesulfonic acid {2,4-difluoro-3-[5-(2-methoxy-pyrimidin-5-yl)-1H-pyrrolo[2,3-b]pyridine-3-carbonyl]-phenyl}-amide]
≤ 10 | ≤ 10 | ≤ 10 | ≤ 10 | ≤ 10 | ≤ 10 | ≤ 10 | ≤ 10 | – | – | – | COc1ncc(-c2cnc3[nH]cc(C(=O)c4c(F)ccc(NS(=O)(=O)c5ncn[nH]5)c4F)c3c2)cn1 [P-2080]
≤ 10 | ≤ 10 | ≤ 10 | ≤ 10 | ≤ 10 | ≤ 10 | – | – | – | – | – | COc1ncc(-c2cnc3[nH]cc(C(=O)c4c(F)ccc(NS(=O)(=O)CC(F)(F)F)c4F)c3c2)cn1 [P-2342, 2,2,2-Trifluoro-ethanesulfonic acid {2,4-difluoro-3-[5-(2-methoxy-pyrimidin-5-yl)-1H-pyrrolo[2,3-b]pyridine-3-carbonyl]-phenyl}-amide]
≤ 10 | ≤ 10 | ≤ 10 | ≤ 10 | ≤ 10 | ≤ 10 | ≤ 10 | ≤ 10 | – | – | – | COc1ncc(-c2cnc3[nH]cc(C(=O)c4c(F)ccc(NS(=O)(=O)c5ccccn5)c4F)c3c2)cn1 [P-2079]
≤ 10 | ≤ 10 | ≤ 10 | ≤ 10 | ≤ 10 | ≤ 10 | ≤ 10 | ≤ 10 | – | – | – | COc1ncc(-c2cnc3[nH]cc(C(=O)c4c(F)ccc(NS(=O)(=O)N(C)C)c4F)c3c2)cn1 [P-2399, N,N-dimethylamino-sulfonic acid {2,4-difluoro-3-[5-(2-methoxy-pyrimidin-5-yl)-1H-pyrrolo[2,3-b]pyridine-3-carbonyl]-phenyl}-amide]
≤ 10 | ≤ 10 | ≤ 10 | ≤ 10 | ≤ 10 | ≤ 10 | ≤ 10 | ≤ 10 | ≤ 10 | – | – | COc1ncc(-c2cnc3[nH]cc(C(=O)c4c(F)ccc(NS(=O)(=O)C5CCCC5)c4F)c3c2)cn1 [P-2372, Cyclopentanesulfonic acid {2,4-difluoro-3-[5-(2-methoxy-pyrimidin-5-yl)-1H-pyrrolo[2,3-b]pyridine-3-carbonyl]-phenyl}-amide]
≤ 10 | ≤ 10 | ≤ 10 | ≤ 10 | ≤ 10 | ≤ 10 | ≤ 10 | ≤ 10 | – | – | – | CCC(C)S(=O)(=O)Nc1ccc(F)c(C(=O)c2c[nH]c3ncc(-c4cnc(OC)nc4)cc23)c1F (stereo not shown) [P-2323, Butane-2-sulfonic acid {2,4-difluoro-3-[5-(2-methoxy-pyrimidin-5-yl)-1H-pyrrolo[2,3-b]pyridine-3-carbonyl]-phenyl}-amide]
≤ 10 | ≤ 10 | ≤ 10 | ≤ 10 | ≤ 10 | ≤ 10 | ≤ 10 | ≤ 10 | – | – | – | COc1ncc(-c2cnc3[nH]cc(C(=O)c4c(F)ccc(NS(=O)(=O)C(C)C)c4F)c3c2)cn1 [P-2287, Propane-2-sulfonic acid {2,4-difluoro-3-[5-(2-methoxy-pyrimidin-5-yl)-1H-pyrrolo[2,3-b]pyridine-3-carbonyl]-phenyl}-amide]
≤ 10 | ≤ 10 | ≤ 10 | ≤ 10 | ≤ 10 | ≤ 10 | ≤ 10 | – | – | – | – | COc1ncc(-c2cnc3[nH]cc(C(=O)c4c(F)ccc(NS(=O)(=O)N5CCOCC5)c4F)c3c2)cn1 [P-2402, Morpholine-4-sulfonic acid {2,4-difluoro-3-[5-(2-methoxy-pyrimidin-5-yl)-1H-pyrrolo[2,3-b]pyridine-3-carbonyl]-phenyl}-amide]

Source: US20120122860A1, “SOLID FORMS OF SULFONAMIDES AND AMINO ACIDS” (Plexxikon, Inc., priority 2009, published 2012)
